From patent US10836954B2 (priority 2015, dated 2020)

Assays:
Pseudomonas Fluorescens [1] = conditions: well water, 72° F.
Experimental: The biocidal activity of THPS/oxidizing breaker compositions against Pseudomonas Fluorescens was examined. In the first experiment, 2 L of well water was inoculated with 4 mL of a Nutrient Broth containing live Pseudomonas f. and stirred using an overhead mixer at 2000 rpm. After thorough mixing, and with the mixer running, 150 mL samples were taken with a syringe and inserted into separate bottles. The first and last bottles were left without biocide or breaker to act as controls. The remaining samples were treated with varying concentrations of biocide and oxidizing breakers.
Biocidal activity analysis was completed using a […]® PhotonMaster™ luminometer and Quench-Gone™ Organic Modified (QGO-M) ATP test kit. At the initial time (Time 0), both control samples were tested using the ATP kit. All samples were then left at ambient lab temperature (72° F.). All samples (20 mL each) were then tested using the ATP kit at one hour and at 24 hours.

Pseudomonas Fluorescens [2] = type: cell-based; conditions: breaker 1.0 gpt added to 0.25 gpt biocide; 1% KCl water pH 7.7, 77° F., 1 h and 5 h
Experimental: 500 mL of 1% KCl water, buffered with sodium bicarbonate to pH 7.7 was inoculated with 10 mL of a Nutrient Broth containing live Pseudomonas f. and blended on a Waring lab blender at 2000 rpm for 5 minutes. After blending, it was separated into 30 mL samples in separate bottles. The first and last bottles were left without biocide or breaker to act as controls. The remaining samples were treated with varying concentrations of biocide and oxidizing breakers.
Biocidal activity analysis was completed using a […]® PhotonMaster™ luminometer and Quench-Gone™ Organic Modified (QGO-M) ATP test kit. At the initial time (Time 0), both control samples were tested using the ATP kit. All samples were then incubated at 77° F. All samples (5 mL) were then tested using the ATP kit at one hour and again at 5 hours.

| Molecule | compatibility of biocidal activity with oxidizing breakers (ATP analysis) (Pseudomonas Fluorescens [1]; THPS 20% 0.25 or 0.50 gpt with sodium persulfate, hydrogen peroxide 7% or sodium chlorite 8%, 1 h and 24 h) | effect of addition of the breakers on biocidal properties (ATP analysis) (Pseudomonas Fluorescens [1]; THPS concentration of 0.25 gpt, 1 h and 24 h (FIG. 5)) | effect of added breaker on decrease in microbial activity (ATP analysis) (Pseudomonas Fluorescens [2]) |
| --- | --- | --- | --- |
| tetrakis(hydroxymethyl)phosphonium sulphate [THPS] | no apparent incompatibility | appears to enhance or accelerate the biocidal properties |  |
| OO [hydrogen peroxide 7%, hydrogen peroxide] |  |  | may be accelerated or enhanced slightly |
| sodium chlorite [sodium chlorite 8%] |  |  | may be accelerated or enhanced slightly |
